# Entries after “also recorded” stand apart in the source; their conditions may differ.
# Test system: HeLa cells
# Experiment: Inhibition of rMcep1-coated fluorescent latex microsphere uptake
# Assay type: cell-based
smiles,measurement,setting,value
COC(=O)Nc1nc2ccc(C(=O)c3cccs3)cc2[nH]1 [Nocodazole],inhibition of association/uptake of rMcep1-coated fluorescent beads,"nocodazole up to 5 mg/ml, 1 hr preincubation at 4° C. then 5 hrs at 37° C., FIG. 5E",inhibited the association of the beads in a dose dependent fashion; also recorded: had a similar inhibitory effect at noncytotoxic concentrations
C=C1[C@@H](C)[C@H]2[C@H](Cc3ccccc3)NC(=O)[C@]23[C@H](OC(C)=O)/C=C/[C@@](C)(O)C(=O)[C@@H](C)C/C=C/[C@H]3[C@@H]1O [Cytochalasin D],inhibition of association/uptake of rMcep1-coated fluorescent beads,"cytochalasin D 0.1-5 mg/ml, 1 h preincubation at 37° C., FIG. 5D",blocked the association of the protein-coated beads in a dose-dependent manner
same,inhibition of association/uptake of rMcep1-coated fluorescent beads,"cytochalasin D 0.1-5 mg/ml, 1 h preincubation at 37° C., FIG. 5D, listed as cytochalasin D","blocked uptake of the fluorescent beads, but the inhibition was not complete"
"CN(C)c1cccc2c(S(=O)(=O)NCCCCCN)cccc12 [MDC, Monodansylcadaverine]",inhibition of association/uptake of rMcep1-coated fluorescent beads,"MDC 1-100 mm, 3 h preincubation at 37° C., FIG. 5F",partly inhibited the association
same,inhibition of association/uptake of rMcep1-coated fluorescent beads,"MDC 1-100 mm, 3 h preincubation at 37° C., FIG. 5F, listed as Monodansylcadaverine (MDC)",partly inhibited the bead uptake
